This is an account of results in patent US20060018981A1, “Sanitization process by using bacteriostatic or bactericidal products derived from vegetables” (priority 2004, published 2006).

This series is classed as physicochemical. How it is done:
Substances B and C Evaporation Rate at Room Temperature Substances B and C were inserted in a thermostated chamber at room temperature and the substance weight/surface ratio for both of them was evaluated. Both substances B and C, alone or in mixture with a gel, were controlled and the loss of weight versus time was recorded. The resulting data of the test were interpolated so as to obtain two algorithms indicating, respectively, the evaporation rate of B and C. To this end two different interpolation methods were used. The algorithm adopted for the first interpolation method is: po/[…] uti (1) The algorithm adopted for the second interpolation method is: po/p=(A×T1⁄2)/(T1⁄2+min uti) (2) Parameters used in algorithms (1) and (2) have the following meaning: p: initial weight of the antibacterial substances expressed in g; po: weight of the antibacterial substances at time t, expressed in g; a, b, A: correlation parameters; and T1⁄2: half-life time of the antibacterial substances.

As for “silvester pine oil [B: silvester pine oil]”, the “parameter T1/2 (half-life time of the antibacterial substances)” value stood at 854737.

For lavender oil [C: lavender oil], the “parameter T1/2 (half-life time of the antibacterial substances)” value turned out to be 46856.
